Read-outs that look alike come from different tables or passages of the source.

Ten compounds from US9624164B2, “Phenyl carbamate compounds for use in preventing or treating epilepsy” (Bio-Pharm Solutions Co., Ltd., priority 2011, dated 2017) can be followed below.

Type in all cases: in vivo
Data set [1] has as its system male ICR mice. Briefly: scPTZ test (subcutaneous pentylenetetrazol-induced clonic seizure), intraperitoneal administration, mice. The note with it: ip. How it is done: (§1) After Peak time (0.5, 1, 2 and 4 hr) from the administration, PTZ (Pentylenetetrazol) was administered subcutaneously in the concentration capable of inducing 97% intermittent convulsions (mice: 100˜110 mg/kg·bw, 100 ul/g, or rats: 90˜110 mg/kg·bw, 20 ul/g). If clonic seizure was not observed for at least 3 seconds in the PTZ administered animal, it can be considered that the test compound has anti-epilepsy activity.

In data set [2] the test system is mice. Kind of data set: Measurement of neurotoxicity (rotarod, Dunham and Miya). The note with it: protective index. The protocol: The measurement of neurotoxicity of the test compounds was conducted by the method of Dunham and Miya [Dunham, N. W. and Miya, T. S. 1957. A note on a simple apparatus for detecting neurological deficit in rats and mice. J. Am. Pharm. Assoc. (Baltimore) 46: 208-209]. In the method, motor abilities of the test animals can be determined by observing whether the test animals can walk without falling from a rotator, thereby determining the value of neurotoxicity of each compound. […] They were pre-trained on the rotarod (Rotarod; Columbus instrument, rota-max, USA) at 6 rpm for 5 min 24 hr prior to the test. The peak time was determined by administration test material's random dose for 0.5, 1, 2, 4 hour. […] The ratio of TD50 to ED50 (TD50/ED50) is called as a protective index, and useful as a parameter for comparison of pharmaceutical efficacy and neurotoxicity.
For orientation: In the rotarod test animals must keep their balance on a rotating rod.

Data set [3] deals with male ICR mice. Kind of data set: MES test (maximal electroshock, corneal electrodes), oral administration, mice.
Data set [4] concerns male SD rats. Briefly: MES test (maximal electroshock, corneal electrodes), oral administration, rats. In general terms: Protection in the maximal electroshock model is a classic sign of anticonvulsant action.
Data set [5] has as its system male SD rats. Kind of data set: scPTZ test (subcutaneous pentylenetetrazol-induced clonic seizure), intraperitoneal administration, rats. The note with it: ip; for ED50: Rat, read-out: Duration of scPTZ test ED50. How it is done: as §1
The subject of data set [6] is male ICR mice. Briefly: scPTZ test (subcutaneous pentylenetetrazol-induced clonic seizure), intraperitoneal administration, mice. The note with it: Mouse, ip, read-out: Duration of scPTZ test ED50.
The mark [7] stands for this setting: Mus musculus, mice, at peak time, read-out: ScPTZ test(ip) ED50.

For the compound `CC(OC(N)=O)C(O)c1ccccc1Cl` (racemic) [Compound 3, 1-(2-chlorophenyl)-1-hydroxypropyl-2-carbamate], the ED50 in data set [1] (setting [7]) came to 15.3 mg/kg. The “PI (TD50/ED50 in MES)” value in data set [2] was determined as 12.0.
For the compound `CCC(OC(N)=O)C(O)c1ccccc1Cl` (racemic) [Compound 8, 1-(2-chlorophenyl)-1-hydroxybutyl-2-carbamate], the responders at 100 mg/kg in data set [3] (Mus musculus, injection amount 100 mg/kg, 4 mice, read-out: MES test(po) Protection %) came to 100%.
As to `CCCCC(OC(N)=O)C(O)c1ccccc1Cl` (racemic) [Compound 14, 1-(2-chlorophenyl)-1-hydroxyhexyl-2-carbamate], in data set [3] (Mus musculus, injection amount 200 mg/kg, 4 mice, read-out: MES test(po) Protection %), the responders at 200 mg/kg worked out at 100%.
As for `C[C@H](OC(N)=O)[C@@H](O)c1ccccc1Cl` [Compound 1, 1-(2-chlorophenyl)-(S)-1-hydroxypropyl-(S)-2-carbamate], the efficacy duration time result in data set [3] (MES test, mice) is “at least 12 hours”; in data set [4] it was “at least 12 hours”; in data set [1] (scPTZ test, mice) it was “at least 12 hours”; in data set [5] (scPTZ test, rats) it was “at least 12 hours”. Further, the ED50 in data set [1] (Mouse, 0.5 h, read-out: Duration of scPTZ test ED50) was found to be 17.3 mg/kg; in data set [1] (Mouse, 1 h, read-out: Duration of scPTZ test ED50), 16.9 mg/kg; in data set [1] (Mouse, 2 h, read-out: Duration of scPTZ test ED50), 15.8 mg/kg; in data set [1] (Mouse, 4 h, read-out: Duration of scPTZ test ED50), 27.4 mg/kg; in data set [1] (setting [7]), 15.8 mg/kg; in data set [5] (0.5 h), 18.9 mg/kg. Also, the ED50 came out at 14.5 mg/kg in data set [5] (1 h); 21 mg/kg in data set [5] (2 h); 31 mg/kg in data set [5] (4 h); 41.3 mg/kg in data set [5] (8 h); 76.7 mg/kg in data set [5] (12 h); 52.2 mg/kg in data set [6] (6 h). Moreover, the values for the ED50 in data set [6] (8 h) and in data set [6] (12 h) were 80.7 mg/kg and 201 mg/kg, respectively. Further, the “PI (TD50/ED50 in MES)” value in data set [2] is 16.8.
For the compound `C[C@@H](OC(N)=O)[C@H](O)c1ccccc1Cl` [Compound 2, 1-(2-chlorophenyl)-(R)-1-hydroxypropyl-(R)-2-carbamate], in data set [1] (setting [7]), the ED50 amounted to 38.8 mg/kg. Moreover, the “PI (TD50/ED50 in MES)” value in data set [2] is recorded as 7.3.
The matching figures for `C[C@H](OC(N)=O)[C@H](O)c1ccccc1Cl` [Compound 5, 1-(2-chlorophenyl)-(R)-1-hydroxypropyl-(S)-2-carbamate]: 15 mg/kg and 3.3.
With `CC[C@H](OC(N)=O)[C@@H](O)c1ccccc1Cl` [Compound 6, 1-(2-chlorophenyl)-(S)-1-hydroxybutyl-(S)-2-carbamate], the ED50 in data set [1] (setting [7]) turned out to be 17.9 mg/kg.
With `C[C@H](OC(N)=O)[C@@H](O)c1c(Cl)cccc1Cl` [Compound 37, 1-(2,6-dichlorophenyl)-(S)-1-hydroxypropyl-(S)-2-carbamate], the ED50 in data set [1] (setting [7]) came to 25.7 mg/kg. The “PI (TD50/ED50 in MES)” value in data set [2] came out at 5.1.
`CC[C@H](OC(N)=O)[C@@H](O)c1ccc(Cl)cc1Cl` [Compound 39, 1-(2,4-dichlorophenyl)-(S)-1-hydroxybutyl-(S)-2-carbamate]: the ED50 in data set [1] (setting [7]) stood at 24.3 mg/kg.
For `C[C@H](OC(N)=O)[C@@H](O)c1ccccc1F` [Compound 63, 1-(2-fluorophenyl)-(S)-1-hydroxypropyl-(S)-2-carbamate], the responders at 50 mg/kg in data set [3] (Mus musculus, injection amount 50 mg/kg, 4 mice, read-out: MES test(po) Protection %) worked out at 100%.
